Assay results from patent US6348609B1, “Method for obtaining an oil that is rich in hydroxyoctadecadienoic fatty acids (HODE) or the esters thereof from a mixture containing linoleic acid or the esters thereof” (Laboratoires Arkopharma, priority 1999, dated 2002).

Key:
[1] = skin penetration in vitro on human skin with Franz cells; format: in vitro ADME
Procedure: A study of skin penetration is carried out in vitro on human skin with Franz cells. These cells comprise a surface area of human skin of 1.76 cm^2 on which is placed 800 μg of 9-HODE. After 6 hours of contact, an assay of the 9-HODE is carried out by gas chromatography at the surface of the human skin sample, in the epidermis, in the dermis and in the receiving phase.

human adipocytes = assay: production of cAMP in human adipocytes (lipolysis activation); format: cell-based
Excerpt: The aim of this study is to study the effect of 9-HODE on the production of cAMP (cyclic adenosine monophosphate) which is a lipolysis activator, in human adipocytes. The effect of 9-HODE is studied relative to that of adrenaline and caffeine which are two molecules that are known for their lipolysis-stimulating effects.

[2] = 800 μg on 1.76 cm^2 human skin, after 6 hours of contact
[3] = 9-HODE 10^−4 M, human adipocytes

9-HODE assayed at the surface of the skin [1, 2]	9-HODE assayed in the dermis [1, 2]	9-HODE assayed in the epidermis [1, 2]	9-HODE assayed in the receiving phase [1, 2]	skin-penetrating power ([1]; human skin, Franz cells)	SMILES	concentration of cAMP, times greater than that obtained with caffeine (human adipocytes; 9-HODE 10^−3 M, human adipocytes)	increase in cAMP relative to adrenaline (human adipocytes; [3])	increase in cAMP relative to caffeine (human adipocytes; [3])	concentration of cAMP (human adipocytes; 9-HODE concentration of 10^−3 M, human adipocytes)	conclusion on lipolysis activation in vitro (human adipocytes; in vitro, by stimulating production of cAMP by adipocytes)	concentration of cAMP (human adipocytes; caffeine comparator, concentration not given, human adipocytes)
33%	32%	11%	24%	high skin-penetrating power	CCCCCC=CC=CC(O)CCCCCCCC(=O)O (centres unmarked) [9-HODE, 9-hydroxy-10,12-octadecadienoic acid]	10 times	greater than that obtained, irrespective of the concentration, by adrenaline	equivalent to that of caffeine 10^−3 M	7.940 femtomol of cAMP/million adipocytes	powerful lipolysis activator	–
–	–	–	–	–	Cn1c(=O)c2c(ncn2C)n(C)c1=O [caffeine, reference compound]	–	–	–	–	–	799 femtomol of cAMP/million adipocytes
